Experiments:
[1] = mn = molality of the nth substance listed, in mol/kg; conditions: 100.8 kPa, Liquid, m2 = 0; for viscosity: Cone and plate viscometry; for electrical conductivity: Kyoto model CM-117 conductivity meter
[2] = refractive index (Na D-line) (dimensionless); mn = molality of the nth substance listed, in mol/kg; conditions: 100.8 kPa, Liquid, Standard Abbe refractometry, m2 = 0

O [water] + O=[N+]([O-])[O-].[K+]
Conditions | electrical conductivity, [1] [S/m] | refractive index, [2] | viscosity, [1] [mPa·s]
298.15 K | 0.000125 | 1.33277 | 0.891
313.15 K | 0.000164 | 1.3306 | 0.653

Conditions | mass density [kg/m3]
[1], 313.15 K, Vibrating tube method | 992.15

Source: the NIST ThermoML archive (doi:10.1021/je800637t)
